Measured values: patent publication US9056847B2, “Activity based probes (ABPs) interacting with glycosidases” (ACADEMISCH MEDISCH CENTRUM BIJ UNIVERSITEIT VAN AMSTERDAM, priority 2010, dated 2015)
Like-named read-outs stand apart in the source and are kept apart here.

Tests used:
GBA [1] = biological target: T1, GBA (Homo sapiens (Human), UniProt P04062, R534H); assay: Continuous substrate release assay for inhibition constants; assay type: biochemical; details: for Ki: equilibrium constant for initial binding; for Ki / ki: reported with s.e.m.; for ki: rate constant; for ki/Ki: relative rate constant
Description: Previously discontinuous methods have been used to determine the inhibition constants of glycosidase inhibitors. […] Therefore the inhibition constants have been determined in a continuous substrate assay which was first described in 1982 (2) and has recently been reappraised in 2010 (3). In these experiments, inhibition of the enzyme and hydrolysis of the substrate proceed concurrently making the situation slightly more complex than the discontinuous (FIG. 39 Scheme 2). The time-dependent interaction of inhibitor (I) with free β-glucosidase (E) was considered to occur in separate stages (A). A rapid reversible interaction is followed by a slower, irreversible reaction that transforms the reversible enzyme-inhibitor complex (EI) into an irreversible enzyme-inhibitor complex (EI*) (FIG. 39 Scheme 2). Progress curves were obtained (FIG. 28a) and apparent rate constant k′ was plotted versus the concentration (FIG. 28b) to obtain estimates of the Ki (equilibrium constant) and ki (rate constant)
To 100 μL McIlvaine buffer (pH 5.2, 0.2% sodium taurocholate, 0.1% Triton X-100) containing 4-methylumbelliferyl β-D-glucoside (7.5 mM) in Greiner flat bottom black 96-well plate was added 5 μL inhibitor (25× stock in DMSO). The resulting mixture was preincubated at 37° C. for 15 min in a TECAN GENios microplate reader. GBA (2 ng) in McIlvaine buffer (20 μL pH 5.2, 0.2% sodium taurocholate, 0.1% Triton X-100) was preheated to 37° C. for 15 min before being added to the substrate mix. The resulting solution was mixed by horizontal shaking for 15 sec, after which release 4-methylumbelliferyl measured with a TECAN GENios platereader (λex 340 nm and λem 465 nm) for the indicated time. Bleaching of the fluorophore, which was observed during the assay, was corrected by subtracting blanks (100 μL substrate buffer, 5 μL DMSO, 20 μL McIlvaine buffer). Apparent rate constants k′ were obtained by fitting the resulting progress curves (FIG. 28A) to the one-phase association equitation y (y max y0)(1−exp^−kt)yo+in GraphPad Prism version 5.00 for Windows, GraphPad Software, San Diego Calif. USA, www.graphpad.com. Measurements were performed in nine fold and plotting of the obtained k′ values versus [^I0] yielded rectangular hyperbolar functions (FIG. 28B).
[formula] estimates of Ki app and ki were obtained. The Ki value in the absence of substrate was obtained by correcting the Ki app with […]

GBA [2] = biological target: T1, GBA; assay: GBA enzyme activity assay with 4-methylumbelliferyl β-D-glucopyranoside, inhibitor preincubated 30 min (apparent IC50); assay type: biochemical
GBA [3] = biological target: T1, GBA; assay: Competition assay for labeling of recombinant GBA with MDW933; assay type: biochemical; details: 2 mM, 30 min
GBA1 = GBA1 (Homo sapiens (Human), UniProt P04062); assay: Kinetic constants of GBA1 inhibition (Table 2); assay type: biochemical; details: Table 2 kinetic constants
fibroblasts = assay: Toxicity monitoring by live-cell imaging of fibroblasts; assay type: cell-based, human; details: after 100 h of exposure
Description: (§1) We next studied the labeling of GBA by MDW941 in intact fibroblasts using time-lapse microscopy. […] As a control, matched mice received the buffer solution intravenously. […] In addition to GBA, MDW933 clearly labeled other proteins that occur in the intestine in the mouse.
With the 37° C., 10% CO2 incubator enclosing the microscope, […] microscopy with an N2.1 filter block and phase-contrast brightfield microscopy (Leica IR-BE with Z-motor drive and a Plan APO 63×/1.40 oil immersion objective (Leica Microsystems, Rijswijk, The Netherlands), equipped with a KX85 camera, Apogee Instruments, Auburn, Calif., USA). […] An auto-focus routine was applied during acquisition. Images were analyzed using TimeLapseAVI 5.1.4 software (©Ron Hoebe, CMO, AMC, University of Amsterdam, The Netherlands; R.A.Hoebe@amc.uva.nl).

GBA [4] = biological target: T2, GBA (Homo sapiens (Human), UniProt P04062); assay: Time-lapse microscopy of GBA labeling in intact fibroblasts; assay type: cell-based; details: 5 nM
Description: as §1
With the 37° C., 10% CO2 incubator enclosing the microscope, cells were imaged every 5 min for 2 hours simultaneously using fluorescence microscopy with an N2.1 filter block and phase-contrast brightfield microscopy (Leica IR-BE with Z-motor drive and a Plan APO 63×/1.40 oil immersion objective (Leica Microsystems, Rijswijk, The Netherlands), equipped with a KX85 camera, Apogee Instruments, Auburn, Calif., USA). […] An auto-focus routine was applied during acquisition. Images were analyzed using TimeLapseAVI 5.1.4 software (©Ron Hoebe, CMO, AMC, University of Amsterdam, The Netherlands; R.A.Hoebe@amc.uva.nl).

GBA [5] = biological target: T2, GBA; assay: Fluorescence microscopy of probe-labeled fibroblasts; assay type: cell-based; details: 5 nM, 2 h
Description: We studied in situ labeling of GBA in cells using fluorescence-activated cell sorting (FACS) analysis. We first preincubated cells in the absence or presence of CBE and subsequently incubated the cells with a subsaturating or an excess amount of the green fluorescent probe 5. […] These positive results prompted us to analyze labeling of the cells with fluorescence microscopy (FIG. 25c-f). […] We also detected GBA protein by indirect immunofluorescence using the specific anti-GBA monoclonal antibody 8E4 (ref. 29). Using multispectral image analysis, we could specifically distinguish the respective fluorescent emission spectra (FIG. 25d-e) from autofluorescent background (FIG. 25c). […] As probes with a hydrophobic BODIPY moiety might nonspecifically be retained in membranes, in particular the plasma membrane, we studied this possibility more closely. […] These control probes did inhibit GBA in vitro with IC^50 values of 41 and 95 μM, respectively. However, inhibition is presumably reversible.
Fibroblasts were cultured on glass slides. […] Next, cells were washed, fixed with 3% (v/v) paraformaldehyde in PBS for 15 min, washed and incubated first with 0.05% (w/v) saponine for 15 min, next with 0.1 mM NH4Cl in PBS for 10 min and then with 3% (w/v) bovine serum albumin in PBS for 1 h. Next, the slides were incubated with anti-GBA monoclonal antibody 8E4 (1:500). […]

N370S GBA = N370S GBA (Homo sapiens (Human), UniProt P04062, N370S); assay: Chaperone experiment using isofagomine in N370S GBA fibroblasts; assay type: cell-based; details: 7 d, 0, 10, 30 and 300 nM
GBA [6] = biological target: T1, GBA; assay: Reversibility of isofagomine competition for active site labeling; assay type: biochemical; details: pH 5.2, wash before labeling with MDW933 (10 nM for 15 min)
lactase = assay: Lactose competition of MDW933 labeling in intestinal homogenates; assay type: biochemical, mouse; details: lactose 250 mM
Description: FIG. 32 Indenfication of the 160 kDa protein. […] (b) Quantification of the observed fluorescent signal. Data represent mean values±s.d.

[7] = rec. GBA1, 30 min, 37 C., pH 5.2 + Tch, Tr, read-out: Apparent IC50 (nM) rec. GBA1: 30 min, 37 C., pH 5.2 + Tch, Tr
[8] = recombinant GBA, in vitro, read-out: apparent half-maximal inhibitory concentration (IC50)

Chain of GBA1 (P04062 40-536): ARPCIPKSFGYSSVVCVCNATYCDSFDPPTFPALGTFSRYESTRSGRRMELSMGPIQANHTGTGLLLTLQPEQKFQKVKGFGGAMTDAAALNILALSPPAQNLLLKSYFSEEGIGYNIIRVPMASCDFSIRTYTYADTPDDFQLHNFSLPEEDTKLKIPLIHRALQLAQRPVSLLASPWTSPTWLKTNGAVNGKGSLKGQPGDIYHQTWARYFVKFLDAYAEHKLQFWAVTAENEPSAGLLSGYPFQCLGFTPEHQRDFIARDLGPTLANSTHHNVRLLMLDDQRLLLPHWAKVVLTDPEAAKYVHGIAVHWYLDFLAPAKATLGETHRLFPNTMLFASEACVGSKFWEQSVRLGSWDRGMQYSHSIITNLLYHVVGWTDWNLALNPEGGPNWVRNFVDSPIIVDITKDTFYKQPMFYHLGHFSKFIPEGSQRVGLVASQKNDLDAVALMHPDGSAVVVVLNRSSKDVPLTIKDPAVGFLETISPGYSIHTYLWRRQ
T1 sequence (P04062 40-536 R534H): as the sequence (P04062 40-536) above, with R495H counted along it
T2 sequence (P04062 40-536): as the sequence (P04062 40-536) above
Chain of N370S GBA (P04062 40-536 N409S): as the sequence (P04062 40-536) above, with N370S counted along it

Row | Ki (GBA [1]) [nM] | ki (GBA [1]) [min⁻¹] | ki/Ki (GBA [1]) [µM⁻¹ min⁻¹] | Ki (GBA1) [nM] | IC50 (GBA [2]; [8]) [nM] | SMILES | also measured
1 | 8 ± 3 | 0.208 ± 0.063 | 25.10 | 1.56 |  | COc1ccc(C2=[N+]3C(=C(CCCCc4cn(C[C@@H]5[C@@H](O)[C@H](O)[C@@H](O)[C@@H]6O[C@H]56)nn4)c4ccc(-c5ccc(OC)cc5)n4[B-]3(F)F)C=C2)cc1 [MDW941] | signs of apoptosis or toxicity (fibroblasts): did not show any signs of apoptosis or toxicity; IC50 (GBA [2]; FIG. 16, ABPs designed for GBA1, read-out: IC50): 2 nM; IC50 (GBA [2]; recombinant GBA, read-out: apparent half-maximal inhibitory concentration (IC50)): 1.94 ± 0.08 nM; time to maximum labeling (GBA [4]): ≤ 15 min; ki (GBA1): 0.0236 min⁻¹
2 |  |  |  |  | 41000 | CC1=CC(C)=[N+]2C1=C(CCCCc1cn(C[C@H]3C=C[C@H](O)[C@@H](O)[C@@H]3O)nn1)c1c(C)cc(C)n1[B-]2(F)F [MDW1064] | 
3 |  |  |  |  | 95000 | COc1ccc(C2=[N+]3C(=C(CCCCc4cn(C[C@H]5C=C[C@H](O)[C@@H](O)[C@@H]5O)nn4)c4ccc(-c5ccc(OC)cc5)n4[B-]3(F)F)C=C2)cc1 [MDW1065] | labeling of fibroblasts (GBA [5]): hardly any detectable labeling

The next lines start with the molecule.

Row | SMILES | Ki (GBA [1]) [nM] | ki (GBA [1]) [min⁻¹] | ki/Ki (GBA [1]) [µM⁻¹ min⁻¹] | Ki (GBA1) [nM] | IC50 (GBA [2]; [8]) [nM] | also measured
4 | Cc1cc(=O)oc2cc(O[C@@H]3O[C@H](CO)[C@@H](O)[C@H](O)[C@H]3O)ccc12 [4-methylumbelliferyl β-D-glucoside, reference compound] |  |  |  |  |  | Km (GBA [1]): 1.2 mM
5 | O[C@H]1[C@H](O)[C@@H](O)[C@@H]2O[C@@H]2[C@@H]1O [CBE, Conduritol B-epoxide, reference compound] | 53000 ± 10800 | 0.217 ± 0.026 | 0.004 | 7730 |  | IC50 (GBA [2]; [7]): 12000 nM; effect of preincubation on labeling with MDW933 (GBA [3]): blocked labeling completely; ki (GBA1): 0.0244 min⁻¹
6 | OC[C@@H]1[C@@H](O)[C@H](O)[C@@H](O)[C@@H]2O[C@H]12 [Cyclophellitol 3, cyclophellitol, reference compound] | 152 ± 26 | 0.078 ± 0.010 | 0.514 |  | 150 ± 9 | 
7 | [N-]=[N+]=NC[C@@H]1[C@@H](O)[C@H](O)[C@@H](O)[C@@H]2O[C@H]12 [KY170, (2S,3R,4S,5S)-8-azido-8-deoxy-cyclophellitol] | 44 ± 7 | 0.035 ± 0.003 | 0.794 | 83 | 120 ± 4 | IC50 (GBA [2]; [7]): 150 ± 30 nM
8 | OC[C@H]1CNC[C@@H](O)[C@@H]1O [isofagomine] |  |  |  |  |  | GBA enzyme activity in cell homogenates (N370S GBA): modest isofagomine dose-dependent increase; fluorescent MDW941-labeled GBA quantified on gel (N370S GBA): modest dose-dependent increase; reversibility of competition for the active site (GBA [6]): fully reversible
9 | OC[C@H]1O[C@@H](O[C@H]2[C@H](O)[C@@H](O)C(O)O[C@@H]2CO)[C@H](O)[C@@H](O)[C@H]1O (stereo partly shown) [lactose] |  |  |  |  |  | reduction of labeling of the high-molecular weight protein in the intestinal fraction (lactase): < 90%
